Usually Hill coefficient stands for the slope factor of the fitted curve. Broadly, the Kd is the free concentration of one partner at which half of the binding sites on the other are occupied at equilibrium, for simple one-to-one binding. High values mean weaker binding, low ones tighter binding.

Where no end group is shown, it is not given here.

The results in this text go back to patent US20110160121A1, “UNACYLATED GHRELIN AND ANALOGS AS THERAPEUTIC AGENTS FOR VASCULAR REMODELING IN DIABETIC PATIENTS AND TREATMENT OF CARDIOVASCULAR DISEASE” (ALIZE PHARMA SAS, priority 2008, published 2011).

The test system of one assay is CAC membranes. In words: Saturation binding experiment on CAC membranes (Scatchard analysis). Details: species or system human.
Assay [1] relates to CAC. In words: Matrigel-plug assay: de novo vessel formation by CAC from diabetic patients in SCID mice. The assay is classed as in vivo, human. On the procedure:
To evaluate whether CAC recovered from UAG-treated diabetic patients rescue their vasculogenic capability, de novo vessel formation was assayed in vivo. To this end, Matrigel plugs containing IL-3 and CSFE-labelled CAC, recovered from untreated or UAG-treated patients, were injected into SCID mice, 15 days after injection Matrigel plugs were recovered and analyzed by immunohistochemistry. […] On the contrary no functional vessels could be detected when CAC recovered from untreated patients were used (FIG. 4E, panel a (left)). To exclude the possibility that the neo-vessels derived from vasculogenic cells of host origin, immunofluorescence assay was performed using the anti-human HLA Class I and the anti-mouse MHC II antibodies.
Matrigel-plug assay—For murine angiogenesis assay, untreated or UAG-treated CAC, obtained from type 2 diabetic patients, were counted and resuspended in DMEM (4×10^6 in 250 μL DMEM). […]
Immunohistochemistry and immunofluorescence—For immunohistochemistry, sections from paraffin-embedded blocks of Matrigel plugs were collected onto poly-lysine-coated slides. […] The percentage of positive cells was counted in 4 non-sequential sections for each experiment at ×40 magnification. […] The number of MHC II or HLA I positive vessels was determined by counting 10 randomly selected fields in three different samples.

Assay [2] concerns CAC. As to the kind of experiment: CAC mobilization assay in diabetic mice (NOD/SCID, ob/ob). Format: in vivo, mouse. Conditions: FIG. 4B. The method, then: To further confirm data obtained by treating patients and healthy controls with UAG, two different mouse models of diabetes were used. NOD/SCID mice and ob/ob mice were treated for different time intervals with saline or UAG. The person skilled in the art will be familiar with the NOD/SCID mice and ob/ob mice models.
(§1) After treatment, cells were recovered, assayed by FACS analysis, counted and cultured. […] Black lines refer to preimmune IgG used as negative control and grey lines refer to surface marker expression. Similar results were obtained when CAC from untreated diabetic mice as well as untreated or treated wild-type mice were analyzed (data not shown).
Diabetic and control mice—Mice were divided in four groups. The plasma glucose and insulin determination for each group are reported. Sixteen 6 weeks old ob/ob mice (blood glucose, 600±45 mg/dL, insulin, 5.5±0.9 ng/ml); sixteen C56BL6/J wild type mice (blood glucose, 150±18.2 mg/dL, insulin, 1±0.05 ng/ml); ten 7 weeks old NOD/SCID mice (blood glucose, 164±12.9 mg/dL, insulin 1.2±.0.12 ng/ml); ten 17 weeks old NOD/SCID mice (blood glucose, 536±36.3 mg/dL, insulin 4.85±0.74 ng/ml). Animal procedures conformed to the Guide for Care and Use of […] (National Institutes of Health publication no. […], revised 1985).
Mobilization assay—Mice were treated for 12 hours with UAG or saline. CAC recovered and purified as above described, were put in culture and counted by three independent investigators. The technical ratio of CAC was calculated by comparing the numbers of CAC/μL of blood drawn from left ventricular.

In assay [3] the test system is CAC. In words: Expansion and arterial commitment of CAC recovered from UAG-challenged mice, cultured with IL-3. Format: in vivo, mouse. The method, then: as §1
RNA isolation and quantitative real-time PCR—CAC from diabetic patients, healthy subjects and mice treated with UAG or saline were cultured in EGM-2 medium. Human arterial and venous cells were used as a positive controls. mRNA quantification was performed by Q-RT-PCR, as previously described (Ref. 24). The relative expression of Ephrin B2, Notch1, Notch4 and EphB4 were calculated by using comparative threshold cycle methods. The human and murine primer sequences used were described (Refs. 25, 26).
Flow Cytometry—To analyze CAC cell-cycle progression, cells recovered from diabetic, healthy subjects, NOD/SCID, ob/ob and wt mice, were cultured in EBM-2 supplemented with IL-3 (10 ng/ml), FACS analysis was performed as previously described (Ref. 20). Cell surface molecules were evaluated by flow cytometry as previously described (Ref. 24). Frequency of marker-positive cells is expressed as mean±standard deviation (SD). […]

For the next assay, the system named is p53, p21, pRb. As to the kind of experiment: Western blot of p53, p21 and phospho-Rb in cultured CAC. Format: cell-based, human. The settings on record: induced by AGE in cultured CAC; FIG. 2B. The source says: To this end, the effect of AGE treatment, alone or in combination with UAG, was first evaluated on SA-β-gal activity. […] In addition, AGE-induced p53 accumulation and senescent like-growth arrest were prevented by silencing p53 (FIG. 2C).
Western Blot Analysis—CAC from healthy donors cultured in the presence of UAG, in combination or not with AGE, and CAC recovered from diabetic patients treated with saline or UAG were lysed. Protein concentration was detected as previously described (Ref. 24). 50 μg of proteins were separated on SDS-polyacrylamide gels and transferred to nitrocellulose membranes. Reaction with anti-p53, anti p21 and anti-phospho-Rb antibodies and detection with an enhanced chemiluminescence detection system (Amersham Biosciences) were performed as described previously (Ref. 20).
(In general: Immunoblotting shows a protein as a band on a membrane.)

Setting [4] is: Scatchard analysis, CAC membranes.

For “1-NH2Gly-Ser-Ser-Phe-Leu-Ser-Pro-Glu-His-Gln-Arg-Val-Gln-Gln-Arg-Lys-Glu-Ser-Lys-Lys-Pro-Pro-Ala-Lys-Leu-Gln-Pro-Arg-28 (H-GSSFLSPEHQRVQQRKESKKPPAKLQPR; ends and bridges not checked; listed as Homo sapiens) [UAG]”, in the assay with CAC membranes (CAC membranes, FIG. 5B), the “radioligand concentration at maximum specific binding (saturable)” value was found to be 2 nM. In addition, in the assay on CAC membranes (setting [4]), the Bmax is reported as 10.7 fmol/mg membrane protein and the Hill coefficient is listed as roughly 1. Moreover, the dissociation constant Kd at CAC membranes (Scatchard analysis, single class of binding sites on CAC) came to 0.48 nM. For the same substance, in the assay on CAC [1] (CSFE-labelled CAC from UAG-treated diabetic patients, Matrigel plugs with IL-3 in SCID mice, 15 days, FIG. 4E), the “de novo formation of functional vessels” value is on record as “formed functional vessels”. In the assay with CAC [1] (Matrigel plugs, immunofluorescence, FIG. 4F), the “origin of vessels (human HLA Class I vs mouse MHC II)” value is recorded as “majority of vessels are lined by human HLA Class I positive cells”. The “number of CAC relative to untreated wild type mice” value in the assay with CAC [2] (UAG-treated ob/ob mice vs untreated wild type mice) is “fully restores the number of CAC to normal physiological levels”. Further, the “percentage of recovered cells (CAC)” value in the assay on CAC [2] (diabetic NOD/SCID mice) is recorded as “increase the percentage of recovered cells”. Also, in the assay with CAC [2] (ob/ob mice), the “number of circulating CAC” value is recorded as “increased number of circulating CAC”. Further, the “arterial commitment of recovered CAC” value in the assay on CAC [3] (CAC from UAG-challenged mice cultured in the presence of IL-3, FIG. 4D) is on record as “acquire arterial commitment”. Besides, the “expansion of recovered CAC” value in the assay with CAC [3] (CAC from UAG-challenged mice, FIG. 4C) is on record as “could be expanded”. Besides, the “p53 accumulation, p21 expression and phosphorylation of Rb” value in the assay with p53, p21, pRb was “prevented p53 accumulation, p21 expression and phosphorylation of Rb induced by AGE”.
